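Assay format: 96-well plates, 48-hour exposure. GI50 is the concentration that inhibits growth by half. TGI denotes the concentration required for complete inhibition of growth.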
Legend:
Assay in all cases: DTP human tumour cell line panel, 48 h
UACC-62 melanoma = test system: UACC-62 melanoma
OVCAR-8 ovarian = test system: OVCAR-8 ovarian
SK-MEL-5 melanoma = test system: SK-MEL-5 melanoma
K-562 leukemia = test system: K-562 leukemia
UO-31 renal = test system: UO-31 renal
EKVX NSCLC = test system: EKVX NSCLC
HCT-15 colon = test system: HCT-15 colon
COLO 205 colon = test system: COLO 205 colon
IGROV1 ovarian = test system: IGROV1 ovarian
SNB-19 CNS = test system: SNB-19 CNS
CCRF-CEM leukemia = test system: CCRF-CEM leukemia
HS 578T breast = test system: HS 578T breast
MOLT-4 leukemia = test system: MOLT-4 leukemia
SNB-75 CNS = test system: SNB-75 CNS
SN12C renal = test system: SN12C renal
MALME-3M melanoma = test system: MALME-3M melanoma
HOP-92 NSCLC = test system: HOP-92 NSCLC
U251 CNS = test system: U251 CNS
NCI-H522 lung = test system: NCI-H522 lung
BT-549 breast = test system: BT-549 breast
MCF7 breast = test system: MCF7 breast
NCI-H460 lung = test system: NCI-H460 lung
DU-145 prostate = test system: DU-145 prostate
T-47D breast = test system: T-47D breast
CAKI-1 renal = test system: CAKI-1 renal
NCI/ADR-RES ovarian = test system: NCI/ADR-RES ovarian
SK-MEL-2 melanoma = test system: SK-MEL-2 melanoma
SF-539 CNS = test system: SF-539 CNS
NCI-H23 lung = test system: NCI-H23 lung
UACC-257 melanoma = test system: UACC-257 melanoma
RPMI-8226 leukemia = test system: RPMI-8226 leukemia
SK-OV-3 ovarian = test system: SK-OV-3 ovarian
HCT-116 colon = test system: HCT-116 colon
SF-268 CNS = test system: SF-268 CNS
OVCAR-5 ovarian = test system: OVCAR-5 ovarian
SK-MEL-28 melanoma = test system: SK-MEL-28 melanoma
MDA-MB-435 = test system: MDA-MB-435
SW-620 colon = test system: SW-620 colon
HCC-2998 colon = test system: HCC-2998 colon
786-0 renal = test system: 786-0 renal
MDA-MB-231 breast = test system: MDA-MB-231 breast
ACHN renal = test system: ACHN renal
PC-3 prostate = test system: PC-3 prostate
HT29 colon = test system: HT29 colon
OVCAR-3 ovarian = test system: OVCAR-3 ovarian
OVCAR-4 ovarian = test system: OVCAR-4 ovarian
A549 NSCLC = test system: A549 NSCLC
M14 melanoma = test system: M14 melanoma
NCI-H226 lung = test system: NCI-H226 lung
SF-295 CNS = test system: SF-295 CNS
TK-10 renal = test system: TK-10 renal
HOP-62 NSCLC = test system: HOP-62 NSCLC
HL-60(TB) leukemia = test system: HL-60(TB) leukemia
A498 renal = test system: A498 renal
LOX IMVI melanoma = test system: LOX IMVI melanoma
RXF 393 renal = test system: RXF 393 renal
KM12 colon = test system: KM12 colon

N=C(N)c1ccc(COc2ccccc2OCc2ccc(C(=N)N)cc2)cc1
GI50 (UACC-62 melanoma): 34.2 µM
TGI (UACC-62 melanoma): > 100 µM
GI50 (OVCAR-8 ovarian): 48.2 µM
TGI (OVCAR-8 ovarian): > 100 µM
GI50 (SK-MEL-5 melanoma): 17.1 µM
TGI (SK-MEL-5 melanoma): 44.5 µM
GI50 (K-562 leukemia): 34.8 µM
TGI (K-562 leukemia): > 100 µM
GI50 (UO-31 renal): > 100 µM
TGI (UO-31 renal): > 100 µM
GI50 (EKVX NSCLC): 38.5 µM
TGI (EKVX NSCLC): > 100 µM
GI50 (HCT-15 colon): 75.6 µM
TGI (HCT-15 colon): > 100 µM
GI50 (COLO 205 colon): > 100 µM
TGI (COLO 205 colon): > 100 µM
GI50 (IGROV1 ovarian): 61.6 µM
TGI (IGROV1 ovarian): > 100 µM
GI50 (SNB-19 CNS): 41.4 µM
TGI (SNB-19 CNS): > 100 µM
GI50 (CCRF-CEM leukemia): 33.1 µM
TGI (CCRF-CEM leukemia): > 100 µM
GI50 (HS 578T breast): 18.2 µM
TGI (HS 578T breast): 52.6 µM
GI50 (MOLT-4 leukemia): 49.6 µM
TGI (MOLT-4 leukemia): > 100 µM
GI50 (SNB-75 CNS): 73.8 µM
TGI (SNB-75 CNS): > 100 µM
GI50 (SN12C renal): 6.6 µM
TGI (SN12C renal): 89.3 µM
GI50 (MALME-3M melanoma): 19.2 µM
TGI (MALME-3M melanoma): 52.2 µM
GI50 (HOP-92 NSCLC): 11.4 µM
TGI (HOP-92 NSCLC): 86.2 µM
GI50 (U251 CNS): 25.6 µM
TGI (U251 CNS): 65.4 µM
GI50 (NCI-H522 lung): 99.5 µM
TGI (NCI-H522 lung): > 100 µM
GI50 (BT-549 breast): 34.8 µM
TGI (BT-549 breast): 76.7 µM
GI50 (MCF7 breast): 46.5 µM
TGI (MCF7 breast): > 100 µM
GI50 (NCI-H460 lung): 20.9 µM
TGI (NCI-H460 lung): > 100 µM
GI50 (DU-145 prostate): 18.7 µM
TGI (DU-145 prostate): 45.8 µM
GI50 (T-47D breast): 58.4 µM
TGI (T-47D breast): > 100 µM
GI50 (CAKI-1 renal): 2.11 µM
TGI (CAKI-1 renal): 29.8 µM
GI50 (NCI/ADR-RES ovarian): > 100 µM
TGI (NCI/ADR-RES ovarian): > 100 µM
GI50 (SK-MEL-2 melanoma): > 100 µM
TGI (SK-MEL-2 melanoma): > 100 µM
GI50 (SF-539 CNS): 14 µM
TGI (SF-539 CNS): 34.6 µM
GI50 (NCI-H23 lung): 49.4 µM
TGI (NCI-H23 lung): > 100 µM
GI50 (UACC-257 melanoma): > 100 µM
TGI (UACC-257 melanoma): > 100 µM
GI50 (RPMI-8226 leukemia): 16.6 µM
TGI (RPMI-8226 leukemia): 99.3 µM
GI50 (SK-OV-3 ovarian): > 100 µM
TGI (SK-OV-3 ovarian): > 100 µM
GI50 (HCT-116 colon): 35.2 µM
TGI (HCT-116 colon): > 100 µM
GI50 (SF-268 CNS): 31.8 µM
TGI (SF-268 CNS): 86 µM
GI50 (OVCAR-5 ovarian): > 100 µM
TGI (OVCAR-5 ovarian): > 100 µM
GI50 (SK-MEL-28 melanoma): 70 µM
TGI (SK-MEL-28 melanoma): > 100 µM
GI50 (MDA-MB-435): 30.2 µM
TGI (MDA-MB-435): > 100 µM
GI50 (SW-620 colon): 43.5 µM
TGI (SW-620 colon): > 100 µM
GI50 (HCC-2998 colon): 86.8 µM
TGI (HCC-2998 colon): > 100 µM
GI50 (786-0 renal): 29.8 µM
TGI (786-0 renal): > 100 µM
GI50 (MDA-MB-231 breast): 32.9 µM
TGI (MDA-MB-231 breast): > 100 µM
GI50 (ACHN renal): > 100 µM
TGI (ACHN renal): > 100 µM
GI50 (PC-3 prostate): 36.3 µM
TGI (PC-3 prostate): > 100 µM
GI50 (HT29 colon): 47 µM
TGI (HT29 colon): > 100 µM
GI50 (OVCAR-3 ovarian): 16.4 µM
TGI (OVCAR-3 ovarian): 53.5 µM
GI50 (OVCAR-4 ovarian): 92 µM
TGI (OVCAR-4 ovarian): > 100 µM
GI50 (A549 NSCLC): 57.5 µM
TGI (A549 NSCLC): > 100 µM
GI50 (M14 melanoma): 51.2 µM
TGI (M14 melanoma): > 100 µM
GI50 (NCI-H226 lung): 28.6 µM
TGI (NCI-H226 lung): 81 µM
GI50 (SF-295 CNS): 24.1 µM
TGI (SF-295 CNS): 82.4 µM
GI50 (TK-10 renal): 34.3 µM
TGI (TK-10 renal): > 100 µM
GI50 (HOP-62 NSCLC): 18.9 µM
TGI (HOP-62 NSCLC): 48.9 µM

O=c1oc(-c2ccccc2)c(-c2ccccc2)n1-c1ccc(Br)cc1
TGI (UACC-62 melanoma): > 100 µM
TGI (OVCAR-8 ovarian): > 100 µM
TGI (SK-MEL-5 melanoma): > 100 µM
TGI (UO-31 renal): > 100 µM
TGI (EKVX NSCLC): > 100 µM
TGI (HCT-15 colon): > 100 µM
TGI (COLO 205 colon): > 100 µM
TGI (IGROV1 ovarian): > 100 µM
TGI (HL-60(TB) leukemia): > 100 µM
TGI (SNB-19 CNS): > 100 µM
TGI (CCRF-CEM leukemia): > 100 µM
TGI (HS 578T breast): > 100 µM
TGI (MOLT-4 leukemia): > 100 µM
TGI (SNB-75 CNS): 32.2 µM
TGI (SN12C renal): > 100 µM
TGI (HOP-92 NSCLC): > 100 µM
TGI (A498 renal): > 100 µM
TGI (U251 CNS): > 100 µM
TGI (NCI-H522 lung): 62.7 µM
TGI (BT-549 breast): > 100 µM
TGI (MCF7 breast): > 100 µM
TGI (LOX IMVI melanoma): > 100 µM
TGI (NCI-H460 lung): > 100 µM
TGI (DU-145 prostate): 89.4 µM
TGI (T-47D breast): > 100 µM
TGI (CAKI-1 renal): > 100 µM
TGI (RXF 393 renal): > 100 µM
TGI (SK-MEL-2 melanoma): > 100 µM
TGI (SF-539 CNS): 53.8 µM
TGI (NCI-H23 lung): 85.3 µM
TGI (UACC-257 melanoma): > 100 µM
TGI (SK-OV-3 ovarian): > 100 µM
TGI (HCT-116 colon): > 100 µM
TGI (SF-268 CNS): > 100 µM
TGI (OVCAR-5 ovarian): > 100 µM
TGI (SK-MEL-28 melanoma): > 100 µM
TGI (MDA-MB-435): > 100 µM
TGI (SW-620 colon): > 100 µM
TGI (786-0 renal): > 100 µM
TGI (KM12 colon): > 100 µM
TGI (MDA-MB-231 breast): > 100 µM
TGI (ACHN renal): > 100 µM
TGI (PC-3 prostate): > 100 µM
TGI (HT29 colon): > 100 µM
TGI (OVCAR-3 ovarian): > 100 µM
TGI (OVCAR-4 ovarian): 96.4 µM
TGI (A549 NSCLC): > 100 µM
TGI (M14 melanoma): > 100 µM
TGI (NCI-H226 lung): > 100 µM
TGI (SF-295 CNS): > 100 µM
TGI (TK-10 renal): > 100 µM
TGI (HOP-62 NSCLC): > 100 µM

— PubChem BioAssay (NCI)
